Experimental data published in ChEMBL document CHEMBL1240397, “Amodiaquine dosage and tolerability for intermittent preventive treatment to prevent malaria in children” (Antimicrob Agents Chemother, 2010).

How the values were obtained:
Assay type in all cases: organism-based
Details in all cases: in vivo, po
Homo sapiens [1] = assay: Toxicity in children with malaria over 2 years of age assessed as incidence of itching at >=15 mg/kg/day, perorally co-treated with 500 mg sulfalene/25 mg pyrimethamine
Homo sapiens [2] = assay: Toxicity in children with malaria assessed as incidence of rashes at >19 mg/kg/day, perorally and co-treated with sulfadoxine and pyrimethamine during intermittent preventive treatment to prevent malaria in children regimen
Homo sapiens [3] = assay: Toxicity in children with malaria assessed as febrile incidence at <15 mg/kg/day, perorally and co-treated with sulfadoxine and pyrimethamine during intermittent preventive treatment to prevent malaria in children regimen
Homo sapiens [4] = assay: Toxicity in children with malaria under 2 years of age assessed as incidence of itching administered with 250 mg sulfalene/12.5 mg pyrimethamine on first day followed by compound treatment at <=15 mg/kg/day, perorally
Homo sapiens [5] = assay: Toxicity in children with malaria assessed as incidence of rashes at 15-17 mg/kg/day, perorally and co-treated with sulfadoxine and pyrimethamine during intermittent preventive treatment to prevent malaria in children regimen
Homo sapiens [6] = assay: Toxicity in children with malaria over 2 years of age assessed as incidence of fever at >=15 mg/kg/day, perorally co-treated with 500 mg sulfalene/25 mg pyrimethamine
Homo sapiens [7] = assay: Toxicity in children with malaria assessed as incidence of rashes at 17-19 mg/kg/day, perorally and cotreated with Sulfadoxine and pyrimethamine during intermittent preventive treatment to prevent malaria in children regimen
Homo sapiens [8] = assay: Toxicity in children with malaria over 2 years of age assessed as incidence of rashes at >=15 mg/kg/day, perorally co-treated with 500 mg sulfalene/25 mg pyrimethamine
Homo sapiens [9] = assay: Toxicity in children with malaria over 2 years of age assessed as incidence of vomiting at >=15 mg/kg/day, perorally co-treated with 500 mg sulfalene/25 mg pyrimethamine
Homo sapiens [10] = assay: Toxicity in children with malaria assessed as febrile incidence at >19 mg/kg/day, perorally and co-treated with sulfadoxine and pyrimethamine during intermittent preventive treatment to prevent malaria in children regimen
Homo sapiens [11] = assay: Toxicity in children with malaria over 2 years of age assessed as incidence of headache at >=15 mg/kg/day, perorally co-treated with 500 mg sulfalene/25 mg pyrimethamine
Homo sapiens [12] = assay: Toxicity in children with malaria assessed as incidence of vomiting at 15-17 mg/kg/day, perorally and cotreated with Sulfadoxine and pyrimethamine during intermittent preventive treatment to prevent malaria in children regimen
Homo sapiens [13] = assay: Toxicity in children with malaria assessed as incidence of rashes at <15 mg/kg/day, perorally and co-treated with sulfadoxine and pyrimethamine during intermittent preventive treatment to prevent malaria in children regimen
Homo sapiens [14] = assay: Toxicity in children with malaria assessed as febrile incidence at 15-17 mg/kg/day, perorally and co-treated with sulfadoxine and pyrimethamine during intermittent preventive treatment to prevent malaria in children regimen
Homo sapiens [15] = assay: Toxicity in children with malaria under 2 years of age assessed as incidence of vomiting administered with 250 mg sulfalene/12.5 mg pyrimethamine on first day followed by compound treatment at <=15 mg/kg/day, perorally
Homo sapiens [16] = assay: Toxicity in children with malaria under 2 years of age assessed as incidence of headache administered with 250 mg sulfalene/12.5 mg pyrimethamine on first day followed by compound treatment at <=15 mg/kg/day, perorally
Homo sapiens [17] = assay: Toxicity in children with malaria under 2 years of age assessed as incidence of rashes administered with 250 mg sulfalene/12.5 mg pyrimethamine on first day followed by compound treatment at <=15 mg/kg/day, perorally
Homo sapiens [18] = assay: Toxicity in children with malaria assessed as incidence of vomiting at <15 mg/kg/day, perorally and co-treated with sulfadoxine and pyrimethamine during intermittent preventive treatment to prevent malaria in children regimen
Homo sapiens [19] = assay: Toxicity in children with malaria under 2 years of age assessed as incidence of fever administered with 250 mg sulfalene/12.5 mg pyrimethamine on first day followed by compound treatment at <=15 mg/kg/day, perorally
Homo sapiens [20] = assay: Toxicity in children with malaria assessed as febrile incidence at 17-19 mg/kg/day, perorally and cotreated with Sulfadoxine and pyrimethamine during intermittent preventive treatment to prevent malaria in children regimen

Work on `CCN(CC)Cc1cc(Nc2ccnc3cc(Cl)ccc23)ccc1O.Cl` yielded an Activity (Homo sapiens [1]) of 3.8%, an Activity (Homo sapiens [2]) of 2.2% and an Activity (Homo sapiens [3]) of 6.3%. It also gave an Activity (Homo sapiens [4]) of 1.9%, an Activity (Homo sapiens [5]) of 0% and an Activity (Homo sapiens [6]) of 29.8%. It also gave an Activity (Homo sapiens [7]) of 0.8%, an Activity (Homo sapiens [8]) of 1.9% and an Activity (Homo sapiens [9]) of 41.3%. The Activity (Homo sapiens [10]) was 21.7%, the Activity (Homo sapiens [11]) was 5.8% and the Activity (Homo sapiens [12]) was 9.2%. The Activity (Homo sapiens [13]) was 0.8%, the Activity (Homo sapiens [14]) was 10.7% and the Activity (Homo sapiens [15]) was 26.4%. It also gave an Activity (Homo sapiens [16]) of 9.6%, an Activity (Homo sapiens [17]) of 1.9% and an Activity (Homo sapiens [18]) of 7%. It also gave an Activity (Homo sapiens [19]) of 26.4% and an Activity (Homo sapiens [20]) of 9.9%.
